Reference: patent US20140093884A1, “Process for Identifying Novel Anti-Inflammatory Molecules with Reduced Direct Transrepression of Genes Induced by Glucocorticoids” (UNIVERSITE DE STRASBOURG, priority 2011, published 2014)

What was measured:
[1] = tested on: GPX3 (glutathione peroxidase 3) gene, (+)GRE; experiment: GPX3 transcript levels in mouse ear epidermis after topical treatment (Q-RT-PCR); type: in vivo; conditions: WT mice, ears, topical, FIG. 10
Description: (§1) Mice. […] Real time PCR. Total RNA was reverse transcribed using hexamers, followed by Q-PCR, as reported (Li et al., 2005). The GC agonist fluocinolone acetonide (FA) was applied to ears of mice concomitantly treated with the “low-calcemic” Vitamin D3 (VitD3) analog MC903 (Calcipotriol; hereafter called MC) to trigger TSLP expression (Li et al., 2006). […] As expected, the expression of the GC-inducible GPX3 (glutathione peroxidase 3) gene which harbours a (+)GRE (Tuckermann et al., 1999) was enhanced by FA (FIG. 10) and inhibited by RU co-treatment, while FA or RU had no effect on MC-dependent expression of the CYP24A1 gene (a VitD3 target) (FIG. 10).

[2] = tested on: IR nGRE genes CCND1, PRKCB, FSTL1; conditions: mouse, in vivo
Protocol: (§2) Gene transcripts in epidermis of WT and GRdim mutant mice topically treated as indicated for 6 hours are analysed by Q-RT-PCR.
(§3) Note that epidermis was treated as indicated with TPA, to activate NFκB and AP1 factors.

[3] = tested on: IR0 and IR2 nGRE containing genes; experiment: Dex with RU co-administration, expression of IR0 and IR2 genes in epidermis, intestinal epithelium and liver; type: in vivo, mouse; conditions: Dex-treated mice, in all cases
Protocol: Mice. For topical treatment, 1 nmole (nm)/cm^2 MC903, at-RA or TPA; 6 nm/cm^2 FA, Dex or RU24858; and 90 nm/cm^2 RU486 were used. For systemic use, 100 ng/kg body weight active Vit D3, 8 mg/kg Dex and 64 mg/kg RU486 was intraperitoneally injected. GRdim mice were from the European Mouse Mutant Archives (EM:02123). Breeding, maintenance and experimental manipulation of mice were approved by the Animal Care and Use Committee of the IGBMC.

[4] = tested on: TSLP; experiment: TSLP transcript levels in mouse ear epidermis after topical treatment (Q-RT-PCR); type: in vivo; conditions: WT mice, ears, topical
Description: Mice. […] Real time PCR. Total RNA was reverse transcribed using hexamers, followed by Q-PCR, as reported (Li et al., 2005). The GC agonist fluocinolone acetonide (FA) was applied to ears of mice concomitantly treated with the “low-calcemic” Vitamin D3 (VitD3) analog MC903 (Calcipotriol; hereafter called MC) to trigger TSLP expression (Li et al., 2006). […] As expected, the expression of the GC-inducible GPX3 (glutathione peroxidase 3) gene which harbours a (+)GRE (Tuckermann et al., 1999) was enhanced by FA (FIG. 10) and inhibited by RU co-treatment, while FA or RU had no effect on MC-dependent expression of the CYP24A1 gene (a VitD3 target) (FIG. 10). […] Although the basal TSLP level was similar in vehicle-treated WT and GR^ep−/− mice, FA blocked MC-induced TSLP expression in WT, but not in GR^ep−/− mice (not shown).

[5] = tested on: CYP24A1 gene (a VitD3 target); experiment: CYP24A1 transcript levels in mouse ear epidermis after topical treatment (Q-RT-PCR); type: in vivo; conditions: mouse ears, FIG. 10
Description: as §1

[6] = tested on: IR nGRE (pGL3(VDRE) IR1 nGRE luciferase reporter); experiment: Luciferase reporter assay in A549 cells, pGL3(VDRE) IR nGRE plasmids; type: cell-based, human; conditions: pGL3(VDRE) IR1 nGRE
Protocol: Luciferase reporter assay. A549 cells seeded on 24-well tissue culture plates overnight at 70% confluency were transfected with 100 ng pCMV β galactosidase, 200 ng pGL3 reporter plasmids and wherever indicated, with 600 ng pSG5 hVDR plasmid (Green et al., 1988) into each well and maintained in medium containing charcoal treated FCS. 24 hours post-transfection, medium was changed and different compounds were added to it for 6 hours. […] Luciferase assay was carried out as instructed (Promega). Normalized values are reported as the mean±SEM; each value originates from at least three individual transfections with assays performed in duplicate.
To investigate whether additional DNA elements could be required to generate a repressing activity, the TSLP IR1 nGRE was inserted upstream of an enhancerless SV40 early promoter located 5′ to the luciferase coding sequence of pGL3 vector, A VDRE separated from the IR1 nGRE by a 314 bp-long DNA segment devoid of any known transregulator binding site (not shown) was inserted to generate a luciferase-expressing reporter plasmid (pGL3(VDRE) IR1 nGRE, FIG. 4), which was transfected into A549 cells, followed by addition of VitD3 and/or FA.
To investigate whether the 1 bp spacer between the inverted repeated motifs of TSLP IR1 nGRE was critical for its repressing function, pGL3-based luciferase plasmids containing the VDRE and TSLP nGRE motifs spaced by 0 to 5 bases (IR0 to IR5 nGREs) were transfected into A549 cells.

[7] = tested on: Cox2 gene (NFκB and AP1 binding sites); experiment: Q-RT-PCR of Cox2 in epidermis of WT and GRdim mice topically treated 6 hours (TPA-activated); conditions: mouse, in vivo
Protocol: as §2, §3

[8] = target: T1, GR complexes on (+)GRE and nGRE regions (Mus musculus, UniProt P06537); experiment: ChIP in vivo after RU24858 treatment
T1 construct: from tissue; host or cells: mouse epidermis, pancreas, liver
Description: (§4) The “activity profile” of RU24858 was also investigated in vivo.

[9] = target: T2, GR (Homo sapiens, UniProt P04150); conditions: cited from earlier work
T2 sequence (P04150 1-777): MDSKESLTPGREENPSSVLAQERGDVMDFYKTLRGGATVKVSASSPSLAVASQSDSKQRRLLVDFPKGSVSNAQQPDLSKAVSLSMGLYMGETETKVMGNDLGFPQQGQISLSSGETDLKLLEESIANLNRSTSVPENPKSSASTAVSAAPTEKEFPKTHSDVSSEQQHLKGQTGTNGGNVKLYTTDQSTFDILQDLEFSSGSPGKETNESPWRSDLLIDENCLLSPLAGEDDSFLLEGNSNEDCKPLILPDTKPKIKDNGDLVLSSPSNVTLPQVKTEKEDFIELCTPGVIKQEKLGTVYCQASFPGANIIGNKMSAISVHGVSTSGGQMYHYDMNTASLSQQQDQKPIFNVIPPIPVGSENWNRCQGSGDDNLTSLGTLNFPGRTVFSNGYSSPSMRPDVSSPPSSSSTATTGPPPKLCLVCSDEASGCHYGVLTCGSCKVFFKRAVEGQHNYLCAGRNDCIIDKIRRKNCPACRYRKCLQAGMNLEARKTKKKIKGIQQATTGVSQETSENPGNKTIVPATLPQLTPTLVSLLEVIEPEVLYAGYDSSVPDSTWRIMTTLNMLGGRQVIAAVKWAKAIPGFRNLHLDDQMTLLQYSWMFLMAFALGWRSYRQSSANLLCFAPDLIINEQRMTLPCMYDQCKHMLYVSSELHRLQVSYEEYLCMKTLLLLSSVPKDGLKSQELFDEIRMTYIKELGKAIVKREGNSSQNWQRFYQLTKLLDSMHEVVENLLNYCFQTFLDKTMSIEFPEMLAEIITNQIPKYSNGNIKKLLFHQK

[10] = target: T3, repressing complex tethered to NFκB (Homo sapiens, UniProt P04150); experiment: ChIP of repressing complex tethered to NFκB on PGL4-NFκB vector in A549 cells; type: cell-based
T3 construct: GR-expressing cells are in vitro cultured cells, preferably human lung epithelial carcinoma cells A549; endogenous in cells; host or cells: A549 (CCL-185, ATCC)
T3 sequence (P04150 1-777): T2 sequence (P04150 1-777)
Protocol: For ChIP assays to test GR and cofactor binding to the nGRE, +GRE or NFκB region of various luciferase reporter plasmids, ˜60% confluent A549 cells in 100 mm TC dish were transfected with 2 μg of respective plasmids using fugene 6 reagent (Roche) and maintained in charcoal treated FCS containing medium. 44 hours post-transfection, 500 nM FA or Dex or RU24858 and/or 5 μM RU486, 5 ng/ml IL-1β (final conc.) was added to the medium for 2 hours, followed by formaldehyde treatment and processing as described above.

[11] = tested on: (+)GRE-containing GPX3 gene; experiment: GPX3 expression in mouse epidermis after topical RU24858; type: in vivo
Description: (§5) Real time PCR. Total RNA was reverse transcribed using hexamers, followed by Q-PCR, as reported (Li et al., 2005).
as §4

[12] = tested on: NFκB-driven transcription (PGL4-NFκB vector); experiment: Luciferase assay in IL-1β-activated A549 cells transfected with PGL4-NFκB; type: cell-based, human; conditions: 6 hours, FIG. 15A left panel
Protocol: (§6) A549 cells transfected with PGL4-NFκB (NFκBluc plasmid) of SEQ ID NO:56 and PGL4-AP1 (AP1luc plasmid) of SEQ ID NO:55 were treated as indicated for 6 hours, followed by luciferase assay. “BAY”=NFκB-specific inhibitor BAY 11-7082 and “JNK inhibit”=JNK inhibitor II). • B) Q-RT-PCR of gene transcripts from WT dorsal epidermis topically-treated with Dexamethasone or RU24858 for 18 hours (left panel) and from liver of WT mice IP-injected with Dexamethasone or RU24858 for 18 hours (right panel).
(§7) Luciferase reporter assay. A549 cells seeded on 24-well tissue culture plates overnight at 70% confluency were transfected with 100 ng pCMV β galactosidase, 200 ng pGL3 reporter plasmids and wherever indicated, with 600 ng pSG5 hVDR plasmid (Green et al., 1988) into each well and maintained in medium containing charcoal treated FCS. 24 hours post-transfection, medium was changed and different compounds were added to it for 6 hours. Final concentrations of the compounds are: FA, 500 nM; Dex or RU24858, 300 nM or 500 nM (wherever 300 nM Dex or RU was used, it is indicated in the figure, in all other cases, 500 nM concentration was used); active vitamin D3, 1 μM; IL-1β, 5 ng/ml; BAY 11-7082, 5 μM, JNK inhibitor II, 25 μM. Luciferase assay was carried out as instructed (Promega). […]

[13] = tested on: (+)GRE (PGL3(VDRE) (+)GRE luciferase reporter); experiment: Luciferase reporter assay in A549 cells, PGL3(VDRE) (+)GRE vector; type: cell-based, human; conditions: compared with Dex
Protocol: as §7, with “(Promega). Normalized values are reported as the mean±SEM; each value originates from at least three individual transfections with assays performed in duplicate.” for “(Promega).”

[14] = tested on: IR0, IR1 and IR2 nGRE-containing genes; experiment: Q-RT-PCR of IR nGRE-containing genes in WT mouse epidermis or liver after Dexamethasone or RU24858 for 18 hours; conditions: in vivo, FIG. 15B, compared with Dex
Protocol: as §6, §5, §4

[15] = tested on: genes of which the skin expression was enhanced by topical TPA treatment; experiment: Down-regulation of TPA-enhanced genes in mouse skin (NFκB-mediated tethered transrepression); type: in vivo; conditions: compared with Dex
Description: as §4

[16] = tested on: AP1-driven transcription (PGL4-AP1 vector); experiment: Luciferase assay in IL-1β-activated A549 cells transfected with PGL4-AP1; type: cell-based, human; conditions: 6 hours, FIG. 15A right panel
Protocol: as §6, §7

[17] = tested on: (+)GRE-containing GGT1 and ERP27 genes; experiment: GGT1 and ERP27 expression in mouse liver after RU24858; type: in vivo
Description: as §5, §4

[18] = target: T2, GR; conditions: cited from earlier work; remark: listed apart in the source

CC#C[C@]1(O)CC[C@H]2[C@@H]3CCC4=CC(=O)CCC4=C3[C@@H](c3ccc(N(C)C)cc3)C[C@@]21C [RU486, mifepristone]
FA-enhanced GPX3 expression upon RU co-treatment [1]: inhibited | effect of Dex treatment on IR nGRE-mediated transrepression upon excess RU co-treatment [2]: reverted | GC-induced repression of IR0 and IR2 genes upon co-administration of RU [3]: relieved | FA block of MC-induced TSLP RNA upon RU co-treatment [4]: restored | FA-induced inhibition of basal TSLP RNA level upon co-application of RU486 [4]: relieved | effect on MC-dependent expression of the CYP24A1 gene [5]: no effect | FA-induced decrease of luciferase expression (IR1 nGRE) upon RU addition [6]: prevented | effect of RU on NFκB/AP1-mediated tethered transrepression [7]: little effect

C[C@@H]1C[C@H]2[C@@H]3CCC4=CC(=O)C=C[C@]4(C)[C@@]3(F)[C@@H](O)C[C@]2(C)[C@H]1C(=O)CC#N [RU24858]
GR-SMRT/NCoR repressing complexes on nGRE regions [8]: recruitment of GR-SMRT/NCoR repressing complexes | assembly of an activating complex on (+)GRE of GPX3, GGT1 and ERP27 [8]: did not induce assembly of an activating complex | dissociated profile (tethered indirect transrepression vs direct transactivation) in vitro [9]: exhibit the expected dissociated profile in vitro | recruiting a repressing complex tethered to NFκB bound to its cognate element [10]: as efficient as Dex | GC-dependent expression of the (+)GRE-containing GPX3 gene [11]: did not activate | repression of IL1β-induced activation of transcription by NFκB [12]: almost as efficient as Dex | inducing transactivation of (+)GRE pGL3 luciferase plasmid [13]: much less efficient than Dex | transrepression of IR0 nGRE gene CCND1 [14]: as efficient as Dex | transrepression of IR1 nGRE gene CYP26A1 [14]: as efficient as Dex | transrepression of IR1 nGRE gene K14 [14]: as efficient as Dex | transrepression of IR1 nGRE gene PRKCB [14]: as efficient as Dex | transrepression of IR1 nGRE gene TSLP [14]: as efficient as Dex | transrepression of IR2 nGRE gene DPAGT1 [14]: as efficient as Dex | down-regulating, through NFκB-mediated tethered transrepression, genes enhanced by topical TPA [15]: as efficient as Dex | repression of IL1β-induced activation of transcription by AP1 [16]: almost as efficient as Dex | GC-dependent expression of the ERP27 gene [17]: did not activate | GC-dependent expression of the GGT1 gene [17]: did not activate | dissociation upon administration in vivo [18]: failed to confirm this dissociation
